Reference: US20110129868A1, “CELL CAPABLE OF REPLICATING NOVEL HCV REPLICON, CELL CAPABLE OF REPLICATING FULL-LENGTH HCV RNA, AND USE OF THOSE CELLS” (priority 2008, published 2011)

Experiments:
[1] = test system: full-length HCV RNA replication in ORL11 cells; test: microbe, parasite or virus in culture; type: cell-based, HCV-O strain (genotype 1b); conditions: for measured luciferase activity value: 24 hours after the addition, 750,000 without IFN-α
Experimental: (§1) Renilla luciferase was quantified by collecting cells using a Renilla Luciferase Assay System (Promega) according to the manufacturer's experiment protocol.
(§2) Luciferase activity of each cell line was then measured at hour 24, 48, and 72. […] SD values were calculated based on the results from three samples at each point. […]

[2] = test system: full-length HCV RNA replication in ORL8 cells; test: microbe, parasite or virus in culture; type: cell-based, HCV-O strain (genotype 1b); conditions: ORL8 cells; for measured luciferase activity value: 24 hours after the addition, 380,000 without IFN-α
Experimental: as §1, §2

[3] = test system: full-length HCV RNA replication in OR6 cells; test: microbe, parasite or virus in culture; type: cell-based, HCV-O strain (genotype 1b); conditions: OR6 cells
Text: as §1
An OR6-cell assay system was used as a control.

[4] = test system: HCV replicon RNA replication in sORL8 (pool) cells; test: luciferase reporter assay using sORL8 (pool) cells; type: cell-based, HCV-O strain (genotype 1b); conditions: luciferase activity after 72 hours
Text: as §1
(§3) In the ORN/3-5B/QR, KE, SR (replicon RNA)-introduced OL8c and OL11c cells, G418-resistant cells filled the dish in 2 weeks (FIG. 9). Because the whole cells were estimated to be several tens of thousands of colonies, the G418-resistant cells were mixed without cloning, and used as reporter gene-carrying replicon-replicating cells (sORL8 (pool) cells and sORL11 (pool) cells). These cells had luciferase activities measuring 8×10^5 and 15×10^5, respectively, in terms of actual measurement values per 2×10^5 cells (Promega assay kit). […] Note that the doubling time of the cells using a common subculture medium (in the presence of G418) was calculated as 53 hours and 40 hours. It was also confirmed that the replicon RNA in these cells were not incorporated into the host DNA (the results are not presented).
(§4) The same experiments were conducted using sORL8 (pool) cells and sORL11 (pool) cells.

[5] = test system: HCV replicon RNA replication in sORL11 (pool) cells; test: luciferase reporter assay using sORL11 (pool) cells; type: cell-based, HCV-O strain (genotype 1b); conditions: luciferase activity after 72 hours
Text: as §1, §3, §4

ORL8 cells = test: cell count by trypan blue staining, ORL8 cells; type: cell-based, human; conditions: drug at the concentration corresponding to the EC50 value
ORL11 cells = test: cell count by trypan blue staining, ORL11 cells; type: cell-based, human
OR6 cells = test: cell count by trypan blue staining, OR6 cells; type: cell-based, human; conditions: drug at the concentration corresponding to the EC50 value
[6] = test system: full-length HCV RNA replication in OL8, OL11, and OL14 cells; conditions: IFN-α 50, 100, or 200 IU/ml every 4 days; 25 days; as in O cells
Text: The colonies that appeared as G418 resistant cells were stained with CBB solution (FIG. 7). […] No G418-resistant cell colonies were obtained in OL14 cells.

[7] = test system: full-length HCV RNA replication in 1B-4RL8 cells; test: luciferase activity and HCV RNA level in 1B-4RL8 cells; type: cell-based, HCV strain 1B-4 (genotype 1b); conditions: 24 hours after the addition of IFN-α (1, 10, 100 IU/ml)
Experimental: (§5) Total RNA was extracted from the HCV RNA replicating cells using an RNeasy Mini Kit (Qiagen) according to the manufacturer's experiment protocol. First, using 2 μg of RNA as a template, reverse transcription (RT) reaction was performed with SuperScript™ II reverse transcriptase (Invitrogen) and the primer 319R below according to the manufacturer's experiment protocol. HCV RNA was quantified by real-time LightCycler PCR, using the resulting cDNA as a template. Real-Time LightCycler PCR was performed based on the method previously reported by the present inventors (reference: Acta Med. Okayama 56, 107-110, 2002), using the primers 104 and 197R below.
as §1
(§6) The 1B-4RL8 and KAH5RL8 cells were examined with regard to a possible correlation between luciferase activity and HCV RNA level (FIG. 49). The graphs on the left represent the measured luciferase activities 24 hours after the addition of IFN-α (0, 1, 10, 100 IU/ml) to the 1B-4RL8 and KAH5RL8 cells (each cultured for 2 days after inoculating 2×10^4 cells in a 24-well plate). Measurements were made in at least 3 wells at each point. A one hundred percent measurement value of 300,000 was obtained for the 1B-4RL8 and KAH5RL8 cells. […]

[8] = test system: full-length HCV RNA replication in KAH5RL8 cells; test: luciferase activity and HCV RNA level in KAH5RL8 cells; type: cell-based, HCV strain KAH5 (genotype 1b); conditions: 24 hours after the addition of IFN-α (1, 10, 100 IU/ml)
Experimental: as §5, §1, §6

[9] = 24 hours after the addition of IFN-α (1, 10, 100 IU/ml)
[10] = drug concentrations based on the EC50 values

IFN-α
measured luciferase activity value ([1]; 1 IU/ml IFN-α): 300,000 | measured luciferase activity value ([1]; 10 IU/ml IFN-α): 76,000 | measured luciferase activity value ([1]; 100 IU/ml IFN-α): 27,000 | luciferase activity and HCV RNA level [1, 9]: decreased in a manner that depended on IFN-α concentration | luciferase activity after treatment (single agent or combined use) ([1]; IFN-α at 0.25 IU/ml, ribavirin at 12.5 W): 48% | luciferase activity after treatment (single agent or combined use) [1, 10]: 41% | luciferase activity and HCV RNA level [2, 9]: decreased in a manner that depended on IFN-α concentration | luciferase activity after treatment (single agent or combined use) ([2]; IFN-α at 0.25 IU/ml, ribavirin): 26% | measured luciferase activity value ([2]; addition of 1 IU/ml IFN-α): 113,000 | measured luciferase activity value ([2]; addition of 10 IU/ml IFN-α): 36,000 | measured luciferase activity value ([2]; addition of 100 IU/ml IFN-α): 19,000 | luciferase activity after treatment (single agent or combined use) [2, 10]: 50% | luciferase activity after treatment (single agent or combined use) ([3]; IFN-α at 0.25 IU/ml, ribavirin): 75% | luciferase activity after treatment (single agent or combined use) [3, 10]: 67% | EC50 ([3]; luciferase activity after 72 hours): 0.40 IU/ml | EC50 [4]: 0.14 IU/ml | EC50 [5]: 0.25 IU/ml | cell count over the control cells (ORL8 cells): ≥ 95% | cell count over the control cells (ORL11 cells): ≥ 95% | cell count over the control cells (OR6 cells): ≥ 95% | sensitivity of full-length HCV RNA replication (G418-resistant colonies) [6]: highly sensitive | luciferase activity and HCV RNA level [7]: decreased in a manner that depended on IFN-α concentration | luciferase activity and HCV RNA level [8]: decreased in a manner that depended on IFN-α concentration
